Experiments:
R406 + Foretinib = compound: COc1cc(Nc2ncc(F)c(Nc3ccc4c(n3)NC(=O)C(C)(C)O4)n2)cc(OC)c1OC [R406] + COc1cc2c(Oc3ccc(NC(=O)C4(C(=O)Nc5ccc(F)cc5)CC4)cc3F)ccnc2cc1OCCCN1CCOCC1 [Foretinib] (partner 0.25 µM); experiment: relative viability (nuclei count vs DMSO), 5 days (fraction); higher = more cells survive
Method in brief: (§1)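 Lung cancer cell lines were seeded in 1536-well plates and dosed by pin tool the next day, with either a single drug or a fixed anchor-drug dose combined with five library-drug doses (not always all listed) spaced in √10 steps. Five days later, one step fixed the cells and stained their nuclei (final 0.05% Triton X-100, 1% formaldehyde, 1 ug/ml Hoechst), and nuclei were counted on 4× images. Relative viability is the nuclei count in treated wells divided by the count in vehicle wells, and each value is the median of duplicate plates.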

Daporinad + Tozasertib = compound: O=C(/C=C/c1cccnc1)NCCCCC1CCN(C(=O)c2ccccc2)CC1 [Daporinad] + Cc1cc(Nc2cc(N3CCN(C)CC3)nc(Sc3ccc(NC(=O)C4CC4)cc3)n2)n[nH]1 [Tozasertib] (partner 0.1 µM); experiment: as above
Method in brief: as §1

| Cell Line | relative viability (R406 + Foretinib; first compound 0.08 µM) | relative viability (R406 + Foretinib; first compound 0.253 µM) | relative viability (R406 + Foretinib; first compound 0.8 µM) | relative viability (R406 + Foretinib; first compound 2.53 µM) | relative viability (R406 + Foretinib; first compound 8 µM) | relative viability (Daporinad + Tozasertib; first compound 0.0005 µM) | relative viability (Daporinad + Tozasertib; first compound 0.001581 µM) | relative viability (Daporinad + Tozasertib; first compound 0.005 µM) | relative viability (Daporinad + Tozasertib; first compound 0.01581 µM) |
| --- | --- | --- | --- | --- | --- | --- | --- | --- | --- |
| NCI-H2126 | 1.16 | 0.824 | 1.26 | 1.04 | 1 | 0.919 | 0.888 | 0.875 | 0.93 |
| EMC-BAC-2 | 0.98 | 1.05 | 1.11 | 0.385 | 0.579 | 0.321 | 0.311 | 0.224 | 0.204 |
| NCI-H1993 | 0.72 | 0.756 | 0.846 | 0.642 | 0.577 | 0.62 | 0.576 | 0.633 | 0.656 |
| NCI-H596 | 0.926 | 1 | 0.957 | 0.726 | 0.162 | 0.879 | 0.929 | 1.1 | 0.65 |
| NCI-H650 | 0.968 | 1.17 | 1.03 | 0.914 | 0.864 | 0.691 | 0.853 | 0.738 | 0.835 |
| SW 1573 | 0.908 | 0.915 | 0.887 | 0.932 | 0.665 | 0.185 | 0.183 | 0.166 | 0.178 |
| ChaGo-K-1 | 0.926 | 1.07 | 1.09 | 0.771 | 0.531 | 0.261 | 0.225 | 0.216 | 0.192 |
| NCI-H522 | – | – | – | – | – | 0.599 | 0.533 | 0.484 | 0.433 |
| NCI-H1299 | 1.01 | 1.14 | 1.07 | 1.2 | 1.02 | – | – | – | – |
| NCI-H1650 | 1.28 | 1.23 | 1 | 0.723 | 0.117 | 0.387 | 0.44 | 0.461 | 0.275 |
| NCI-H2009 | 1.19 | 1.35 | 1.17 | 1.27 | 0.368 | 0.76 | 0.706 | 0.724 | 0.555 |
| LOU-NH91 | 0.918 | 0.975 | 0.918 | 0.518 | 0.475 | 0.754 | 0.699 | 0.792 | 0.906 |
| NCI-H2405 | 0.961 | 1.15 | 1.11 | 0.934 | 0.775 | 0.82 | 0.783 | 0.954 | 0.888 |
| SW 900 | 0.769 | 0.779 | 0.915 | 0.754 | 0.519 | 0.638 | 0.473 | 0.735 | 0.346 |
| LCLC-97TM1 | 0.89 | 0.963 | 0.965 | 0.935 | 0.327 | 0.194 | 0.432 | 0.181 | 0.253 |
| NCI-H647 | 1.24 | 1.2 | 1.15 | 0.917 | 1.05 | 0.308 | 0.305 | 0.285 | 0.508 |
| NCI-H838 | 0.984 | 1.17 | 1.09 | 0.645 | 0.791 | 0.25 | 0.322 | 0.229 | 0.177 |
| H3255 | 0.868 | – | 0.872 | 0.878 | 0.673 | 0.455 | 0.605 | 0.638 | 0.716 |
| NCI-H2170 | 0.964 | 1.11 | 1 | 0.916 | 0.814 | 0.694 | 0.742 | 0.668 | 0.849 |

| Cell Line | relative viability (R406 + Foretinib; first compound 0.08 µM) | relative viability (R406 + Foretinib; first compound 0.253 µM) | relative viability (R406 + Foretinib; first compound 0.8 µM) | relative viability (R406 + Foretinib; first compound 2.53 µM) | relative viability (R406 + Foretinib; first compound 8 µM) | relative viability (Daporinad + Tozasertib; first compound 0.0005 µM) | relative viability (Daporinad + Tozasertib; first compound 0.001581 µM) | relative viability (Daporinad + Tozasertib; first compound 0.005 µM) | relative viability (Daporinad + Tozasertib; first compound 0.01581 µM) |
| --- | --- | --- | --- | --- | --- | --- | --- | --- | --- |
| NCI-H1437 | 1.22 | 1.3 | 1.26 | 1.27 | 1.34 | 0.49 | 0.401 | 0.405 | 0.4 |
| NCI-H358 | 0.75 | 0.795 | 0.886 | 0.335 | 0.156 | 0.0969 | 0.0872 | 0.11 | 0.0799 |
| LU99A | 0.801 | 0.794 | 0.914 | 0.588 | 0.345 | 0.26 | 0.254 | 0.29 | 0.249 |
| SK-MES-1 | 0.892 | 0.921 | 0.976 | 0.49 | 0.396 | 0.85 | 0.948 | 1.08 | 0.865 |
| HCC-827 | 0.991 | 1.08 | 1.05 | 0.81 | 0.157 | 0.428 | 0.445 | 0.513 | 0.446 |
| LK-2 | 1.14 | 1.45 | 1.1 | 0.888 | 0.344 | 0.17 | 0.168 | 0.194 | 0.169 |
| HCC-366 | 0.957 | 0.933 | 0.956 | 0.847 | 0.137 | 0.103 | 0.0734 | 0.124 | 0.171 |
| BEN | 0.884 | 0.609 | 0.691 | 0.879 | 0.578 | 0.552 | 0.547 | 0.422 | 0.546 |
| NCI-H23 | 0.989 | 1.05 | 0.977 | – | 0.206 | 0.421 | 0.374 | 0.424 | 0.295 |
| NCI-H1395 | 1.03 | 1.22 | 1.03 | 0.736 | 0.632 | 0.7 | 0.764 | 0.771 | 0.839 |
| A549 | 0.961 | 1 | 0.94 | 0.959 | 0.396 | – | – | – | – |
| 201T | 1.13 | 1.32 | 1.21 | 0.829 | 0.708 | 0.854 | 0.94 | 1 | 0.958 |
| NCI-H1793 | 0.582 | 0.641 | 0.809 | 0.464 | 0.139 | 0.327 | 0.326 | 0.34 | 0.553 |
| NCI-H520 | 0.831 | 1 | 0.883 | 0.293 | 0.421 | 0.446 | 0.507 | 0.25 | 0.184 |
| NCI-H727 | 0.954 | 0.841 | 0.851 | 0.752 | 0.697 | 0.737 | 0.608 | 0.555 | 0.62 |
| HCC-15 | 1.07 | 1.12 | 1.19 | 1.01 | 0.643 | 0.476 | 0.366 | 0.749 | 0.484 |
| NCI-H1563 | 0.777 | 1 | 0.939 | 0.82 | 0.624 | – | – | – | – |
| ABC-1 | 1.08 | 1.03 | 1.03 | 1.15 | 0.781 | 0.186 | 0.185 | 0.179 | 0.209 |
| LCLC-103H | 0.758 | 0.734 | 0.879 | 0.529 | 0.146 | 0.548 | 0.5 | 0.514 | 0.525 |
